From patent publication US20250186627A1, “RADIOLABELED COMPOUNDS TARGETING THE PROSTATE-SPECIFIC MEMBRANE ANTIGEN” (PROVINCIAL HEALTH SERVICES AUTHORITY, priority 2022, published 2025)

Target: T1, PSMA (Homo sapiens, UniProt Q04609)
T1 construct: endogenous in cells; host or cells: LNCaP cells
Experiment: In vitro PSMA competitive binding assay, LNCaP cells, [18F]DCFPyL radioligand
Conditions: [18F]DCFPyL 0.1 nM, read-out: PSMA binding affinity (Ki)
Method: Inhibition constants (Ki) to PSMA were measured by in vitro competition binding assays using [^18F]DCFPyL as the radioligand. LNCaP cells which were plated onto a 24-well poly-D-lysine coated plate for 48 h (400,000/well). Growth medium was removed and replaced with HEPES buffered saline (50 mM HEPES, pH 7.5, 0.9% sodium chloride). After 1 h, [^18F]DCFPyL (0.1 nM) was added to each well (in triplicate) containing varied concentrations ([…]) of tested compounds The assay mixtures were incubated for 1 h at 37° C. with gentle agitation followed by two washes with cold HEPES buffered saline. A trypsin solution (0.25%, 400 μL) was then added to each well to harvest the cells. Radioactivity was measured by gamma counting and Ki values calculated using the ‘one site—fit Ki’ built-in model in Prism 8 (GraphPad).

T1 sequence (Q04609 whole entry): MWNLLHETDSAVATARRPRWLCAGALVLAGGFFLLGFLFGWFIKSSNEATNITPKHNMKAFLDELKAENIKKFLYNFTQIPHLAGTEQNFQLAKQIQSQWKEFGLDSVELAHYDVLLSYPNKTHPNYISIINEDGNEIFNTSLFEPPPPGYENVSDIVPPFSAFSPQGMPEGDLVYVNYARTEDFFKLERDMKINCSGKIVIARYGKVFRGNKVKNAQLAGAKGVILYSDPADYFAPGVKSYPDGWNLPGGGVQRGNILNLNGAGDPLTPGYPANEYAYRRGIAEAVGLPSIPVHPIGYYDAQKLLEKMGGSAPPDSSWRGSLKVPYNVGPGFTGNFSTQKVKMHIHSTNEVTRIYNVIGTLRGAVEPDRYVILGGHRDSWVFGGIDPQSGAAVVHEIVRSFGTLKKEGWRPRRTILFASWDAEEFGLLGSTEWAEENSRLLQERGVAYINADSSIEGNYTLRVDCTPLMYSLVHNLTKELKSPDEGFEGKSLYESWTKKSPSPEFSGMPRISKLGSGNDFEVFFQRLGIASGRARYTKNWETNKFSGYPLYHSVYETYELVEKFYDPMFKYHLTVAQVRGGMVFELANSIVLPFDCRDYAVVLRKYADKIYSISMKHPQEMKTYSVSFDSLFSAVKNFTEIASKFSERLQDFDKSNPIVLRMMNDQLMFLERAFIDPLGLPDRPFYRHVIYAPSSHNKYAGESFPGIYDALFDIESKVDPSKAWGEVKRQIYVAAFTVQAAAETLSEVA

O=C(O)CCC[C@H](NC(=O)N[C@@H](CCCCNC(=O)[C@H](Cc1c2ccccc2cc2ccccc12)NC(=O)C1CCC(CNC(=O)CNC(=O)[C@H](CCCCNC(=O)CN2CCOCCN(CC(=O)O)CCN(CC(=O)O)CCOCCN(CC(=O)O)CC2)NC(=O)CNC(=O)CCCc2ccc([N+](=O)[O-])cc2)CC1)C(=O)O)C(=O)O (stereo partly shown) [CCZ02034]
Ki: 2.82 nM
